In brackets after ≈: the same amount, converted by molar mass. Read-outs that look alike come from different tables or passages of the source.
Columns and labels:
[1] = system: Escherichia coli ATCC 25922; test: Study 4 - MIC by broth micro-dilution (CLSI); type: cell-based; details: Escherichia coli, ATCC25922
Method: (§1) Minimum Inhibitory Concentrations (MICs) were determined by the broth micro-dilution method performed according to Clinical Laboratory Standards Institute guidelines. For testing, 5 mg/mL DMSO solutions were prepared by dissolving solids in DMSO. Standard antibiotics were prepared according to CLSI guidelines as 5 mg/mL stock solutions. Upon DMSO stock solutions preparation, the working solutions in MH media were prepared by adding 38.4 μL of stock solution to 1461.6 μL of MH media. Out of these working solutions 100 μL were transferred to wells in the third column of 96-well assay plates. Assay plates were previously filled with 50 μL of MH media in all wells except for the wells in the third column. Upon compounds and antibiotics addition, 50 μL was transferred from the third to the fourth column, then from the fourth to the fifth and so on.
(§2) MIC value was determined by visual inspection of bacterial growth within 96-well plates. The first column in which there was no visible growth of bacteria was determined as MIC value for compound or antibiotic tested in that particular row. ATCC strains were used as reference strains for which there is a determined value of MIC values for standard antibiotics. The assay is considered valid when MIC values for standard antibiotics are within CLSI designated range for ATCC strain tested.

[2] = system: Klebsiella pneumoniae ATCC 700603; test: Study 4 - MIC by broth micro-dilution (CLSI); type: cell-based; details: Klebsiella pneumoniae, ATCC700603
Method: as §1, §2

[3] = system: Pseudomonas aeruginosa ATCC 27853; test: Study 4 - MIC by broth micro-dilution (CLSI); type: cell-based; details: Pseudomonas aeruginosa, ATCC27853
Method: as §1, §2

[4] = system: Enterobacter cloacae B1966 clinical isolate; test: Study 4 - MIC by broth micro-dilution (CLSI); type: cell-based; details: Enterobacter cloacae
Method: as §1, §2

[5] = system: Haemophilus influenzae ATCC 49247; test: Study 4 - MIC by broth micro-dilution (CLSI); type: cell-based; details: Haemophilus influenzae, ATCC49247
Method: as §1, §2

[6] = system: Acinetobacter baumannii B1931 clinical isolate; test: Study 4 - MIC by broth micro-dilution (CLSI); type: cell-based; details: Acinetobacter baumannii
Method: as §1, §2

[7] = system: Escherichia coli ATCC 25922 TolC deficient mutant (E. coli EFFLUX del); test: microbe, parasite or virus in culture; type: cell-based; details: Escherichia coli, ATCC25922
Method: as §1, §2

E. Coli LeuRS = E. Coli LeuRS (Escherichia coli (strain K12), UniProt P07813); test: Study 2 - Isothermal titration calorimetry (ITC); type: binding; details: 25° C., pH 7.5, mean ± SD
E. Coli LeuRS, sequence (P07813 whole entry): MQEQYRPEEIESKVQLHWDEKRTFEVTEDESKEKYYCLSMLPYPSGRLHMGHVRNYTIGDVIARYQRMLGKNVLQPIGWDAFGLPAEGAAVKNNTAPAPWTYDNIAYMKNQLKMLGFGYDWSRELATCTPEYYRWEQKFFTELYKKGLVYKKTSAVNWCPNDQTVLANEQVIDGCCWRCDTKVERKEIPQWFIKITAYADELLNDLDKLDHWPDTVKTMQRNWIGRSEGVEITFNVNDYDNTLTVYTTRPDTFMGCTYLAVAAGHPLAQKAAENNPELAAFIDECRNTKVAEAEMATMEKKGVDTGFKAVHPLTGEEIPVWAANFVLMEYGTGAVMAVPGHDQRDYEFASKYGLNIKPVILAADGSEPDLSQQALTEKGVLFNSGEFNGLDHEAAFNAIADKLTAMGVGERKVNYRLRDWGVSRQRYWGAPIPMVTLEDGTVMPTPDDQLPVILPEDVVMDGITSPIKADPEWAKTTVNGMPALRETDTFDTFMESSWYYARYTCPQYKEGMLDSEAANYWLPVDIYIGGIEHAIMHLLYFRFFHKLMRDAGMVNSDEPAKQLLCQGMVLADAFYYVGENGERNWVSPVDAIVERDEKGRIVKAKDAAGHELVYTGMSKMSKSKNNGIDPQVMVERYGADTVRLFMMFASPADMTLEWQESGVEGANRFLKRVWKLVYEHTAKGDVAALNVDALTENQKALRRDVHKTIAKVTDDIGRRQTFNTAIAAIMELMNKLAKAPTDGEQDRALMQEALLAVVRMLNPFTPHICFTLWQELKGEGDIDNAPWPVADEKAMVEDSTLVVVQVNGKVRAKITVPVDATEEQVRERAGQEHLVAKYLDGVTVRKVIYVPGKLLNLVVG
Method: Escherichia coli BL21(DE3) cells transformed with plasmid pQE-60 containing the open-reading frame sequence of one targeted aaRS (i.e., LeuRS) were induced with 1 mM IPTG (isopropyl β-D-1-thiogalactopyranoside) for 3 hours at 37° C. Bacterial cells were harvested and lysed with 20 mM HEPES (4-(2-hydroxyethyl)-1-piperazinylethane-sulfonic acid) (pH 7.5), 300 mM NaCl, 15 mM imidazole and 1 mM DTT (1,4-dithio-D-threitol). The pathogenic aaRS was first purified by nickel affinity standard chromatography. The eluted protein was concentrated and then further purified by gel filtration using 50 mM HEPES (pH 7.5), 150 mM NaCl buffer.
ITC studies were carried out using a Microcal ITC200 instrument (GE Healthcare). Protein concentration was determined by spectrophotometry by measuring the absorbance at 280 nm using a theoretical molar extinction coefficient of 169,140 M^−1cm^−1. Ligand stock solutions were prepared in DMSO at 62.5 mM concentration. The titrations were performed at 25° C. with 7.5-100 μM E. Coli LeuRS in 50 mM HEPES, 150 mM NaCl, pH 7.5 buffer containing 1% DMSO (v/v). The protein solution in the 280 μL sample cell was titrated with the inhibitor solution (diluted to 75-3000 μM in the same buffer as the protein) using 1-2 μL injections every 120-140 seconds. All titrations were repeated at least two times. To correct for heats of dilution and mixing, the final baseline consisting of small peaks of identical size at the end of each experiment was subtracted. The experimental data were fitted to a theoretical titration curve (one site model) using MicroCal Origin 7 SR4 software.
Note that Compounds R-4.1 and S-4.1 (in Table 15, below) correspond to Compounds V-i and V-ii (in Tables 13 and 14, above), respectively.

[8] = Human cell viability (cytotoxicity), ATP levels by CellTiter-Glo; type: cell-based; details: HepG2 cells (ATCC HB-8065), 24 hours incubation, read-out: IC50 (μg/mL), Cytotoxicity in HepG2 ATCC HB-8065 Cell Line
Method: Compounds were assessed for potential non-specific cytotoxic effects against a human hepatic cell line (HepG2 ATCC HB-8065). 96-well plates were seeded with HepG2 cells in concentration of 15,000 cells per well in 100 μL of MEM growth media completed with 1% NEAA and 1% sodium pyruvate. Border wells were filled with 100 μL of sterile PBS. Two days upon cells incubation, the compounds were added. Compound dilutions were prepared in 96-well V-bottom plate in pure DMSO. Growth media from 5 plates were aspirated and replaced with 98.7 μL of fresh growth media. 1.28 μL of compounds prepared in V-bottom plates were transferred with multichannel pipette into test plates (78.1× dilution). Final DMSO concentration was 1.28% per well. In control wells, 1.28 μL of DMSO was added in 98.7 μL of media. Compounds were tested in duplicates. Cells were incubated with compounds for 24 hours when cell viability was assessed by measuring ATP levels. ATP levels were measured by adding 50 μL of CellTiter-Glo reagent to each well and after 5 minutes of incubation luminescence was measured with SpectraMax i3. The potential effect of tested compounds on cell viability was determined by comparing the signal obtained in presence of different concentrations of the compounds with those obtained in the presence of DMSO only. The potential effects were then calculated and presented as IC50 values (μg/mL).

[9] = G = H. influenzae ATCC 49247, read-out: MIC

SMILES	MIC [1] [µg/mL]	MIC [2] [µg/mL]	MIC [3] [µg/mL]	MIC [4] [µg/mL]	MIC [5] [µg/mL]	MIC [6] [µg/mL]	MIC [7] [µg/mL]	Kd (E. Coli LeuRS) [nM]	ΔG (E. Coli LeuRS) [kcal/mol]	ΔH (E. Coli LeuRS) [kcal/mol]	IC50 at 24 h [8] [µg/mL]	MIC [5, 9] [µg/mL]
CC(C)C[C@H](N)C(=O)N[S@+]([O-])c1ccccc1 (single isomer, unassigned) [R-4.1, 2,2,2-trifluoroacetate]	2 (≈ 7.86 µM)	8 (≈ 31.5 µM)	32 (≈ 126 µM)	4 (≈ 15.7 µM)	16 (≈ 62.9 µM)	8 (≈ 31.5 µM)	2 (≈ 7.86 µM)	3.86 ± 0.24	-11.48 ± 0.04	-11.92 ± 0.34	> 64	–
CC(C)C[C@H](N)C(=O)N[S@@+]([O-])c1ccccc1 (single isomer, unassigned) [S-4.1]	64 (≈ 252 µM)	> 64	> 64	> 64	–	> 64	64 (≈ 252 µM)	9130 ± 2720	-6.89 ± 0.16	-2.33 ± 0.13	> 64	> 64
C=Cc1cccc([S+]([O-])NC(=O)C(N)CC(C)C)c1 (stereo not drawn) [4.16]	8 (≈ 28.5 µM)	> 64	> 64	32 (≈ 114 µM)	–	32 (≈ 114 µM)	8 (≈ 28.5 µM)	27.2 ± 8.44	-10.34 ± 0.19	-4.89 ± 0.08	> 64	32 (≈ 114 µM)
CC(C)CC(N)C(=O)N[S+]([O-])c1cccc(-c2ccccc2)c1 (stereo not drawn) [4.17]	> 64	> 64	> 64	> 64	–	> 64	64 (≈ 194 µM)	4.47 ± 0.04	-11.39 ± 0.01	-9.72 ± 0.22	47.7 (≈ 144 µM)	> 64
CC(C)CC(N)C(=O)N[S+]([O-])c1cccc(C(F)(F)F)c1 (stereo not drawn) [4.18]	64 (≈ 199 µM)	> 64	> 64	> 64	–	> 64	16 (≈ 49.6 µM)	6.06 ± 0.49	-11.20 ± 0.06	-7.03 ± 0.14	> 64	> 64
CC(C)CC(N)C(=O)N[S+]([O-])c1cccc(OC(F)(F)F)c1 (stereo not drawn) [4.20]	8 (≈ 23.6 µM)	> 64	> 64	> 64	–	> 64	8 (≈ 23.6 µM)	1.39 ± 0.07	-12.08 ± 0.03	-11.64 ± 0.45	> 64	64 (≈ 189 µM)
COC(=O)c1cccc([S+]([O-])NC(=O)C(N)CC(C)C)c1 (stereo not drawn) [4.21]	32 (≈ 102 µM)	> 64	> 64	> 64	–	> 64	32 (≈ 102 µM)	6.61 ± 0.83	-11.16 ± 0.07	-8.23 ± 0.43	> 64	> 64
CNc1cccc([S+]([O-])NC(=O)C(N)CC(C)C)c1 (stereo not drawn) [4.22]	16 (≈ 56.5 µM)	64 (≈ 226 µM)	> 64	32 (≈ 113 µM)	–	32 (≈ 113 µM)	16 (≈ 56.5 µM)	34.5 ± 0.76	-10.17 ± 0.02	-4.27 ± 0.19	> 64	> 64
C#Cc1cccc([S+]([O-])NC(=O)C(N)CC(C)C)c1 (stereo not drawn) [4.27]	4 (≈ 14.4 µM)	32 (≈ 115 µM)	> 64	8 (≈ 28.7 µM)	–	> 64	2 (≈ 7.18 µM)	3.69 ± 0.05	-11.50 ± 0.00	-8.71 ± 1.08	> 64	16 (≈ 57.5 µM)
CC(C)CC(N)C(=O)N[S+]([O-])c1ccc(F)cc1 (stereo not drawn) [4.29]	8 (≈ 29.4 µM)	64 (≈ 235 µM)	> 64	16 (≈ 58.7 µM)	–	16 (≈ 58.7 µM)	16 (≈ 58.7 µM)	9.14 ± 0.3	-10.96 ± 0.01	-10.95 ± 0.18	> 64	32 (≈ 117 µM)
CC(C)CC(N)C(=O)N[S+]([O-])c1ccccc1F (stereo not drawn) [4.31]	2 (≈ 7.34 µM)	2 (≈ 7.34 µM)	32 (≈ 117 µM)	4 (≈ 14.7 µM)	–	4 (≈ 14.7 µM)	2 (≈ 7.34 µM)	6.78 ± 1.73	-11.15 ± 0.16	-12.97 ± 2.04	> 64	8 (≈ 29.4 µM)
CC(C)CC(N)C(=O)N[S+]([O-])c1ccccc1Cl (stereo not drawn) [4.32]	4 (≈ 13.9 µM)	16 (≈ 55.4 µM)	> 64	16 (≈ 55.4 µM)	–	16 (≈ 55.4 µM)	8 (≈ 27.7 µM)	4.61 ± 0.06	-11.37 ± 0.01	-10.62 ± 0.25	> 64	32 (≈ 111 µM)
